Experiment: Stability of 6555 with stabilizers over hours without AAPH (50 mM NH4OAc at RT or Ultrapura water at 40° C.)
Type: physicochemical
Description: The effect of specified sulfur-containing compounds and other stabilizer compounds (including non-sulfur-containing stabilizer compounds) and mixtures of sulfur-containing compounds and non-sulfur-containing stabilizer compounds with the boronic acid compound 6555 (structure shown above) at various pH values.

- 6555 Remaining (%) (50 mM NH4OAc, RT, 6 hr, (−) mode, no stabilizer, pH 5.4): 74.5%
- 6555 Remaining (%) (50 mM NH4OAc, RT, 6 hr, (−) mode, sodium metabisulfite 5 mM, pH 5.1): 63.3%
- 6555 Remaining (%) (50 mM NH4OAc, RT, 7 hr, (−) mode, sodium ascorbate 5 mM, sodium gentisate 2 mM, sodium metabisulfite 5 mM, disodium hydrosulfite 5 mM, pH 5.2): 77.4%
- 6555 Remaining (%) (50 mM NH4OAc, RT, 7 hr, (−) mode, sodium metabisulfite 5 mM, disodium hydrosulfite 5 mM, pH 5.1): 66.9%
- 6555 Remaining (%) (50 mM NH4OAc, RT, 8 hr, (−) mode, NAM 5 mM, sodium metabisulfite 5 mM, pH 4.9): 63.2%
- 6555 Remaining (%) (50 mM NH4OAc, RT, 8 hr, (−) mode, sodium metabisulfite 25 mM, pH 4.2): 63.2%
- 6555 Remaining (%) (50 mM NH4OAc, RT, 26 hr, (+) mode, no stabilizer, pH 5.4): 95.7%
- 6555 Remaining (%) (50 mM NH4OAc, RT, 26 hr, (+) mode, sodium ascorbate 5 mM, sodium gentisate 2 mM, sodium metabisulfite 5 mM, disodium hydrosulfite 5 mM, pH 5.2): 96.7%
- 6555 Remaining (%) (50 mM NH4OAc, RT, 31 hr, (−) mode, no stabilizer, pH 5.4): 82.2%
- 6555 Remaining (%) (50 mM NH4OAc, RT, 31 hr, (−) mode, sodium ascorbate 5 mM, sodium gentisate 2 mM, sodium metabisulfite 5 mM, disodium hydrosulfite 5 mM, pH 5.2): 77.4%
- 6555 Remaining (%) (Ultrapura water, 40° C., 17 hr, (+) mode, no stabilizer, pH 5.2): 95.4%
- 6555 Remaining (%) (Ultrapura water, 40° C., 17 hr, (+) mode, sodium ascorbate 5 mM, sodium gentisate 2 mM, sodium metabisulfite 5 mM, disodium hydrosulfite 5 mM, pH 5): 96.1%
- 6555 Remaining (%) (Ultrapura water, 40° C., 18 hr, (+) mode, sodium ascorbate 5 mM, sodium gentisate 2 mM, NAM 5 mM, disodium hydrosulfite 5 mM, pH 5.0): 96.2%
- 6555 Remaining (%) (Ultrapura water, 40° C., 18 hr, (+) mode, sodium ascorbate 5 mM, sodium gentisate 2 mM, NAM 5 mM, sodium metabisulfite 5 mM, pH 5.1): 95.6%
- 6555 Remaining (%) (Ultrapura water, 40° C., 27 hr, (−) mode, sodium ascorbate 5 mM, sodium gentisate 2 mM, NAM 5 mM, disodium hydrosulfite 5 mM, pH 5.0): 85.3%
- 6555 Remaining (%) (Ultrapura water, 40° C., 27 hr, (−) mode, sodium ascorbate 5 mM, sodium gentisate 2 mM, NAM 5 mM, sodium metabisulfite 5 mM, pH 5.1): 92.8%
- 6555 Remaining (%) (Ultrapura water, 40° C., 28 hr, (−) mode, no stabilizer, pH 5.2): 83.7%
- 6555 Remaining (%) (Ultrapura water, 40° C., 28 hr, (−) mode, sodium ascorbate 5 mM, sodium gentisate 2 mM, sodium metabisulfite 5 mM, disodium hydrosulfite 5 mM, pH 5.0): 82.9%
- 6555 Remain (%) (mM: ascorbate 0, gentisate 0, NAM 0, metabisulfite 0, hydrosulfite 0, pH 5.2, 17 hrs, SID 90754): 95.4%
- 6555 Remain (%) (mM: ascorbate 0, gentisate 0, NAM 0, metabisulfite 0, hydrosulfite 0, pH 5.2, 28 hrs, SID 90768): 83.7%
- 6555 Remain (%) (mM: ascorbate 0, gentisate 0, NAM 0, metabisulfite 0, hydrosulfite 0, pH 5.4, 6 hrs, SID 90779): 74.5%
- 6555 Remain (%) (mM: ascorbate 0, gentisate 0, NAM 0, metabisulfite 0, hydrosulfite 0, pH 5.4, 26 hrs, SID 90844): 95.7%
- 6555 Remain (%) (mM: ascorbate 0, gentisate 0, NAM 0, metabisulfite 0, hydrosulfite 0, pH 5.4, 31 hrs, SID 90853): 82.2%
- 6555 Remain (%) (mM: ascorbate 0, gentisate 0, NAM 0, metabisulfite 5, hydrosulfite 0, pH 4.9, 8 hrs, SID 90787): 63.2%
- 6555 Remain (%) (mM: ascorbate 0, gentisate 0, NAM 0, metabisulfite 5, hydrosulfite 0, pH 5.1, 6 hrs, SID 90780): 63.3%
- 6555 Remain (%) (mM: ascorbate 0, gentisate 0, NAM 0, metabisulfite 5, hydrosulfite 5, pH 5.1, 7 hrs, SID 90783): 66.9%
- 6555 Remain (%) (mM: ascorbate 0, gentisate 0, NAM 0, metabisulfite 25, hydrosulfite 0, pH 4.2, 8 hrs, SID 90790): 63.2%
- 6555 Remain (%) (mM: ascorbate 5, gentisate 2, NAM 0, metabisulfite 5, hydrosulfite 5, pH 5, 17 hrs, SID 90756): 96.1%
- 6555 Remain (%) (mM: ascorbate 5, gentisate 2, NAM 0, metabisulfite 5, hydrosulfite 5, pH 5, 28 hrs, SID 90772): 82.9%
- 6555 Remain (%) (mM: ascorbate 5, gentisate 2, NAM 0, metabisulfite 5, hydrosulfite 5, pH 5.2, 7 hrs, SID 90786): 77.4%
- 6555 Remain (%) (mM: ascorbate 5, gentisate 2, NAM 0, metabisulfite 5, hydrosulfite 5, pH 5.2, 26 hrs, SID 90845): 96.7%
- 6555 Remain (%) (mM: ascorbate 5, gentisate 2, NAM 0, metabisulfite 5, hydrosulfite 5, pH 5.2, 31 hrs, SID 90854): 77.4%
- 6555 Remain (%) (mM: ascorbate 5, gentisate 2, NAM 5, metabisulfite 0, hydrosulfite 5, pH 5.0, 18 hrs, SID 90755): 96.2%
- 6555 Remain (%) (mM: ascorbate 5, gentisate 2, NAM 5, metabisulfite 0, hydrosulfite 5, pH 5.0, 27 hrs, SID 90771): 85.3%
- 6555 Remain (%) (mM: ascorbate 5, gentisate 2, NAM 5, metabisulfite 5, hydrosulfite 0, pH 5.1, 18 hrs, SID 90753): 95.6%
- 6555 Remain (%) (mM: ascorbate 5, gentisate 2, NAM 5, metabisulfite 5, hydrosulfite 0, pH 5.1, 27 hrs, SID 90769): 92.8%
SMILES: C[C@@H](NC(=O)c1ccc(CNC(=O)CN2CCN(CC(=O)O)CCN(CC(=O)O)CCN(CC(=O)O)CC2)cc1)C(=O)N1CCC[C@H]1B(O)O [compound 6555, DOTA-aminomethyl-Bz-D-Ala-boroPro]
